For 23 molecules, TGI and GI50 results are on record in PubChem BioAssay (NCI).

In brackets after ≈: the same amount, converted by molar mass. Several values for one entry are separate records, joined by “and”; a condition that tells them apart may be missing. Equal entries are not always repeated.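 Interpolation was linear, between the two tested concentrations surrounding the appropriate level; five concentrations were tested over 48 hours in 96-well plates. Here, GI50 denotes the concentration required for 50% inhibition of growth. The concentration for full growth arrest is given as TGI.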

Test systems include LXFL 529 NSCLC; 786-0 renal; SK-OV-3 ovarian; RXF 393 renal; RPMI-8226 leukemia; CAKI-1 renal; DMS 114 small cell lung; OVCAR-5 ovarian; HOP-18 NSCLC; BT-549 breast.
Holding throughout (assay): NCI tumour cell line growth inhibition, 48 h

As for `O=S1Nc2c(Cl)cc(Cl)c3c(Cl)cc(Cl)c(c23)N1`, the TGI with LXFL 529 NSCLC is greater than 100 µM; in the assay on 786-0 renal it was 41.9 µM; in the assay with SK-OV-3 ovarian it was greater than 100 µM; in the assay on RXF 393 renal it was 50.9 µM; in the assay on RPMI-8226 leukemia, greater than 100 µM; in the assay with CAKI-1 renal, 95.2 µM. In addition, the TGI with DMS 114 small cell lung, with OVCAR-5 ovarian and in the assay with HOP-18 NSCLC was greater than 100 µM each time.

Take `O=C1C(Cl)C(c2ccccc2O)N1n1cnc2ccccc2c1=O` (centres undefined): the TGI in the assay on LXFL 529 NSCLC is greater than 100 µM; in the assay on 786-0 renal, greater than 100 µM; in the assay on SK-OV-3 ovarian, greater than 100 µM; with RXF 393 renal, 95.7 µM; in the assay on RPMI-8226 leukemia, greater than 100 µM; with CAKI-1 renal, greater than 100 µM. Besides, the TGI was 81.4 µM in the assay on DMS 114 small cell lung, greater than 100 µM in the assay on OVCAR-5 ovarian and greater than 100 µM with HOP-18 NSCLC.

`CC1=NN(C(=O)c2ccc([N+](=O)[O-])cc2)C(=O)C1N=Nc1ccccc1C(=O)O` (centres undefined): the TGI in the assay with LXFL 529 NSCLC, in the assay on 786-0 renal, with SK-OV-3 ovarian, in the assay on RXF 393 renal, in the assay on RPMI-8226 leukemia and in the assay on CAKI-1 renal was greater than 100 µM in each case. Further, the TGI in the assay with DMS 114 small cell lung and in the assay on OVCAR-5 ovarian was greater than 100 µM in each case.

`O=c1c2cccc3cccc(c4n1CCN=4)c32`: the TGI with LXFL 529 NSCLC, with 786-0 renal, in the assay with SK-OV-3 ovarian, in the assay on RXF 393 renal, with RPMI-8226 leukemia and in the assay on CAKI-1 renal was greater than 100 µM in each case. The TGI in the assay on DMS 114 small cell lung, in the assay on OVCAR-5 ovarian and in the assay on HOP-18 NSCLC was greater than 100 µM throughout.

As to `CSc1n[n+]2c(s1)SCCC2`, the TGI in the assay on LXFL 529 NSCLC, in the assay with 786-0 renal, in the assay on RXF 393 renal, with CAKI-1 renal, in the assay on DMS 114 small cell lung and with OVCAR-5 ovarian was greater than 100 µM each time. For the same molecule, the TGI in the assay with HOP-18 NSCLC is greater than 100 µM.

Take `O=c1[nH]c2cc(Cl)ccc2nc1/C(=N\O)C(O)c1ccc([N+](=O)[O-])cc1` (centres undefined): the TGI in the assay with LXFL 529 NSCLC, with 786-0 renal, in the assay on SK-OV-3 ovarian, in the assay on RXF 393 renal, in the assay on RPMI-8226 leukemia and in the assay with CAKI-1 renal was greater than 100 µM in each case. The molecule further showed a TGI in the assay with DMS 114 small cell lung greater than 100 µM.

For `O=C(Nc1cccc(O)c1)C(=O)C(C(=O)c1ccc(Cl)c(Cl)c1)C1OC(=O)c2ccccc21` (centres undefined), the TGI in the assay with LXFL 529 NSCLC is 24.6 µM; in the assay with 786-0 renal it was 26.4 µM; in the assay on SK-OV-3 ovarian, 51.1 µM; with RXF 393 renal, 37.2 µM; with RPMI-8226 leukemia, 54.5 µM; in the assay with CAKI-1 renal, 75 µM. In addition, the TGI in the assay with DMS 114 small cell lung was 33.3 µM; in the assay with OVCAR-5 ovarian it was 65.2 µM; in the assay on HOP-18 NSCLC it was greater than 100 µM.

Regarding `Cc1c(C(=O)/C=C/c2ccccc2O)c(=O)n(-c2ccccc2)n1C`, the TGI was 37.5 µM in the assay with LXFL 529 NSCLC; 70 µM with 786-0 renal; greater than 100 µM with SK-OV-3 ovarian; 50.8 µM with RXF 393 renal; 73.8 µM with CAKI-1 renal; greater than 100 µM with DMS 114 small cell lung. The same molecule returned a TGI with OVCAR-5 ovarian greater than 100 µM.

As for `CC(C)(C)C1CCC2c3c([nH]c4ccccc34)C3C(=O)N(c4ccccc4)C(=O)C3C2C1` (centres undefined), the TGI in the assay on LXFL 529 NSCLC amounted to 32.3 µM; in the assay on 786-0 renal, 26 µM; in the assay with SK-OV-3 ovarian it was 5.18 µM; with RXF 393 renal, 14.4 µM; with RPMI-8226 leukemia it was 28.4 µM; in the assay with DMS 114 small cell lung, 20.7 µM. The TGI in the assay on OVCAR-5 ovarian was greater than 100 µM; with HOP-18 NSCLC, 9.73 µM.

Turning to `Cn1c(=O)c2nc(-c3ccc(Cl)cc3)oc2n(C)c1=O`, the TGI in the assay on LXFL 529 NSCLC, in the assay on 786-0 renal, in the assay on RXF 393 renal, in the assay with RPMI-8226 leukemia, with CAKI-1 renal and in the assay on DMS 114 small cell lung was greater than 100 µM in each case. Besides, the TGI with OVCAR-5 ovarian and with HOP-18 NSCLC was greater than 100 µM in each case.

In the case of `CCOC(=O)C(C)(C)Oc1ccc(/C=C/C(=O)c2ccc(Cl)cc2)cc1`, the TGI in the assay with LXFL 529 NSCLC was found to be 29.2 µM; with 786-0 renal, 30.9 µM; with RXF 393 renal, 30.5 µM; with RPMI-8226 leukemia, 53 µM; with DMS 114 small cell lung it was 36.8 µM.

Turning to `CC/C(CC(=O)CCC(=O)Nc1ccccc1[N+](=O)[O-])=N/NC(=O)C[n+]1ccccc1`, the TGI in the assay on LXFL 529 NSCLC, in the assay on 786-0 renal, in the assay on SK-OV-3 ovarian, in the assay on RXF 393 renal, with RPMI-8226 leukemia and in the assay on CAKI-1 renal was greater than 100 µM in each case. Besides, the TGI with OVCAR-5 ovarian and in the assay with HOP-18 NSCLC was greater than 100 µM in each case.

Consider `CO[C@H](C(=O)[C@@H](O)[C@@H](C)O)[C@@H]1Cc2cc3cc(OC4CC(OC5CC(O)C(O)C(C)O5)C(O)C(C)O4)c(C)c(O)c3c(O)c2C(=O)[C@H]1OC1CC(OC2CC(OC3CC(C)(O)C(O)C(C)O3)C(O)C(C)O2)C(O)C(C)O1` (some centres undefined), for which the GI50 with 786-0 renal is 0.0255 µg/mL and 0.0152 µg/mL and 713 nM; in the assay on SK-OV-3 ovarian, 0.0437 µg/mL (≈ 0.0403 µM); in the assay on RXF 393 renal, 0.0201 µg/mL (≈ 0.0185 µM); in the assay with RPMI-8226 leukemia it was 0.0265 µg/mL and 0.0214 µg/mL; in the assay with CAKI-1 renal, 0.11 µg/mL and 0.0722 µg/mL; with OVCAR-5 ovarian it was 0.0328 µg/mL and 0.113 µg/mL. Further, in the assay with HOP-18 NSCLC, the GI50 is 0.000558 µM.

Turning to `CCOc1cccc2ccc[n+](CC)c12`, the TGI in the assay with LXFL 529 NSCLC, in the assay with 786-0 renal, in the assay on SK-OV-3 ovarian, in the assay with RXF 393 renal, with RPMI-8226 leukemia and with DMS 114 small cell lung was greater than 100 µM each time. In addition, the TGI in the assay on OVCAR-5 ovarian and with HOP-18 NSCLC was greater than 100 µM throughout.

Regarding `O=[N+]([O-])C1Cc2ccccc2OC1c1ccccc1` (centres undefined), the TGI was greater than 100 µM in the assay on LXFL 529 NSCLC; greater than 100 µM in the assay on 786-0 renal; greater than 100 µM in the assay on SK-OV-3 ovarian; 45.8 µM with RXF 393 renal; 99 µM in the assay with CAKI-1 renal; greater than 100 µM with OVCAR-5 ovarian. Besides, the TGI in the assay on HOP-18 NSCLC is greater than 100 µM.

`COc1cc(CNC2c3cc4c(cc3C(c3cc(OC)c(OC)c(OC)c3)[C@H]3C(=O)OCC23)OCO4)cc(OC)c1OC` (some centres undefined): the TGI in the assay with LXFL 529 NSCLC was greater than 100 µM; with 786-0 renal, greater than 100 µM; in the assay on SK-OV-3 ovarian it was greater than 100 µM; with RPMI-8226 leukemia, 79.2 µM; with DMS 114 small cell lung, 0.444 µM; in the assay on OVCAR-5 ovarian, greater than 100 µM. Moreover, the TGI in the assay on HOP-18 NSCLC is greater than 100 µM.

As for `Nc1ccn(C2OC(COC(=O)C34CC5CC(CC(C5)C3)C4)C(O)C2O)c(=O)n1` (centres undefined), the TGI in the assay with 786-0 renal, with BT-549 breast, in the assay with SK-OV-3 ovarian, in the assay with RXF 393 renal, in the assay on RPMI-8226 leukemia and with CAKI-1 renal was greater than 100 µM in each case. For the same molecule, the TGI in the assay on DMS 114 small cell lung, in the assay on OVCAR-5 ovarian and in the assay on HOP-18 NSCLC was greater than 100 µM in each case.

On to `CN(C)C=C1C(Cl)=C(C=O)CC(C=O)=C1Cl`, for which the TGI is 4.45 µM in the assay with LXFL 529 NSCLC; 24.5 µM with 786-0 renal; 79.7 µM in the assay with SK-OV-3 ovarian; 7.2 µM in the assay with RPMI-8226 leukemia; 31.2 µM in the assay on CAKI-1 renal; 26.1 µM with DMS 114 small cell lung. The figures for the TGI in the assay on OVCAR-5 ovarian and in the assay with HOP-18 NSCLC were 30 µM and 26.8 µM, respectively.

As to `CCc1cccc(CC)c1NC(=O)C1=C(C)NC(C)=C(C(=O)Nc2c(CC)cccc2CC)C1c1ccc([N+](=O)[O-])cc1`, the TGI in the assay with LXFL 529 NSCLC is 33.1 µM; in the assay with 786-0 renal, 29.2 µM; in the assay with SK-OV-3 ovarian, 96.4 µM; in the assay on RXF 393 renal it was 77.6 µM; with RPMI-8226 leukemia it was 37.4 µM; in the assay on CAKI-1 renal, greater than 100 µM. In addition, the values for the TGI with DMS 114 small cell lung and with OVCAR-5 ovarian were 52.4 µM and greater than 100 µM, respectively.

Regarding `Cc1c(C(=O)/C=C/c2ccc(N(C)C)cc2)c(=O)n(-c2ccccc2)n1C`, the TGI with LXFL 529 NSCLC, with 786-0 renal, with SK-OV-3 ovarian, in the assay on RXF 393 renal, with CAKI-1 renal and in the assay with DMS 114 small cell lung was greater than 100 µM throughout. The molecule further yielded a TGI in the assay on OVCAR-5 ovarian greater than 100 µM.

In the case of `COC(=O)C1[C@H](c2cc(OC)c(OC)c(OC)c2)OC(=O)C1(C(=O)OC)C(=O)c1ccc2c(c1)OCO2` (some centres undefined), the TGI with LXFL 529 NSCLC, in the assay on 786-0 renal, with SK-OV-3 ovarian, in the assay on RXF 393 renal, in the assay with RPMI-8226 leukemia and with CAKI-1 renal was greater than 100 µM each time. In addition, the TGI with DMS 114 small cell lung and with OVCAR-5 ovarian was greater than 100 µM in each case.

Take `O=[N+]([O-])CCc1cccc([N+](=O)[O-])c1`: the TGI in the assay on LXFL 529 NSCLC, with 786-0 renal, in the assay with RXF 393 renal, in the assay with RPMI-8226 leukemia, in the assay with CAKI-1 renal and with DMS 114 small cell lung was greater than 100 µM in each case. In addition, the TGI in the assay with OVCAR-5 ovarian and in the assay with HOP-18 NSCLC was greater than 100 µM throughout.

As for `Cc1cc(=O)oc2c(C)c(OCCCOc3ccc4c(C)cc(=O)oc4c3C)ccc12`, the TGI in the assay with LXFL 529 NSCLC, in the assay on 786-0 renal, in the assay with SK-OV-3 ovarian, in the assay on RPMI-8226 leukemia, in the assay with CAKI-1 renal and with DMS 114 small cell lung was greater than 100 µM each time. Besides, the TGI in the assay with OVCAR-5 ovarian and in the assay with HOP-18 NSCLC was greater than 100 µM throughout.
